For experiment [1], the system named is Escherichia coli. The experiment is described as follows: In vitro MIC, anaerobic agar dilution, E. coli. The experiment is classed as cell-based. The following applies: brain-heart infusion agar, 37°C. Here is the method: (§1) The in vitro activities are determined under anaerobic conditions in the following manner. Appropriate serial two-fold dilutions of the compounds are mixed with molten brain-heart infusion agar in sterile petri dishes and allowed to solidify. The bacterial cells (approximately 10^5 -10^6 cells) are placed on the top of the agar plate with a Steers replicating device. The plates are incubated at 37°C. in the anaerobic conditions achieved by a Gas Pak (BBL, Cockeysville, […].). The M.I.C. […] The in vitro and in vivo activities of compounds within this invention versus Streptococcus pyogenes and Escherichia coli are presented below: ##SPC4##
A general note: In agar dilution the substance is mixed into plates at graded concentrations.

Experiment [2] deals with Streptococcus pyogenes. Description: In vivo survivors (SC route), Strep. pyogenes infection. Conditions: SC route (subcutaneous); for responders at 100 mg/kg: 100 mg./kg. (footnote b). The source says:
(§2) The in vitro and in vivo activities of compounds within this invention versus Streptococcus pyogenes and Escherichia coli are presented below: ##SPC4##

In experiment [3] the test system is Streptococcus pyogenes. Description: In vitro MIC, anaerobic agar dilution, Strep. pyogenes. The experiment is classed as cell-based. The following applies: brain-heart infusion agar, 37°C. Here is the method:
as §1

The subject of experiment [4] is Escherichia coli. The experiment is described as follows: In vivo survivors (SC route), E. coli infection. Conditions: SC route (subcutaneous); for responders at 100 mg/kg: 100 mg./kg. (footnote b).
Excerpt: as §2

Values after ≈ are worked out from the molar mass of the structure shown.

Regarding `Cc1c(CS(C)(=O)=O)[n+]([O-])c2ccccc2[n+]1[O-]` [CH3 SO2 --CH3], the MIC (commonly the lowest concentration that inhibits growth of the organism) in the experiment with Escherichia coli [1] came to 3.12 µg/mL (≈ 11.6 µM); in the experiment on Streptococcus pyogenes [3], 1.56 µg/mL (≈ 5.82 µM). Moreover, the responders at 50 mg/kg with Streptococcus pyogenes [2] turned out to be 10%. For the same compound, in the experiment on Escherichia coli [4], the responders at 25 mg/kg was 70%.

With `Cc1c(C[S+](C)[O-])[n+]([O-])c2ccccc2[n+]1[O-]` (centres unmarked) [CH3 SO--CH3, 2-methyl-3-methylsulfinylmethylquinoxaline 1,4-dioxide], the MIC in the experiment on Escherichia coli [1] is greater than 200 µg/mL; in the experiment with Streptococcus pyogenes [3] it was 25 µg/mL (≈ 99.1 µM). For the same compound, the responders at 50 mg/kg with Streptococcus pyogenes [2] turned out to be 20%. In the experiment on Escherichia coli [4], this compound came in with a responders at 25 mg/kg of 10%.

Take `CCCSCc1c[n+]([O-])c2ccccc2[n+]1[O-]` [H S--CH2 CH2 CH3, 2-n-propylthiomethylquinoxaline 1,4-dioxide]: the MIC against Escherichia coli [1] and in the experiment on Streptococcus pyogenes [3] was 50 µg/mL (≈ 200 µM) each time. The responders at 50 mg/kg in the experiment on Streptococcus pyogenes [2] came to 0%. In the experiment on Escherichia coli [4], this compound yielded a responders at 25 mg/kg of 60%.

Consider `CSCc1c[n+]([O-])c2ccccc2[n+]1[O-]` [H S--CH3, 2-methylthiomethylquinoxaline 1,4-dioxide], for which the minimal inhibitory concentration (MIC) against Escherichia coli [1] and in the experiment on Streptococcus pyogenes [3] was 1.56 µg/mL (≈ 7.03 µM) throughout. The responders at 100 mg/kg is 50% with Streptococcus pyogenes [2] and 70% in the experiment on Escherichia coli [4].

For the compound `CCCS(=O)(=O)Cc1c[n+]([O-])c2ccccc2[n+]1[O-]` [H SO2 --CH2 CH2 CH3], the MIC against Escherichia coli [1] is 25 µg/mL (≈ 88.6 µM); with Streptococcus pyogenes [3] it was 3.12 µg/mL (≈ 11.1 µM). In addition, the responders at 50 mg/kg with Streptococcus pyogenes [2] came out at 90%. The responders at 25 mg/kg in the experiment with Escherichia coli [4] stood at 90%.

For `CCS(=O)(=O)Cc1c[n+]([O-])c2ccccc2[n+]1[O-]` [H SO2 --CH2 CH3, 2-Ethylsulfonylmethylquinoxaline-1,4-Dioxide], the minimal inhibitory concentration (MIC) in the experiment with Escherichia coli [1] and in the experiment with Streptococcus pyogenes [3] was less than 0.391 µg/mL each time. In the experiment on Streptococcus pyogenes [2], this compound returned a responders at 50 mg/kg of 100%. In the experiment with Escherichia coli [4], this compound registered a responders at 25 mg/kg of 100%.

As for `CS(=O)(=O)Cc1c[n+]([O-])c2ccccc2[n+]1[O-]` [H SO2 --CH3, 2-Methylsulfonylmethylquinoxaline 1,4-Dioxide], the minimal inhibitory concentration (MIC) against Escherichia coli [1] and against Streptococcus pyogenes [3] was less than 0.391 µg/mL each time. The responders at 50 mg/kg in the experiment with Streptococcus pyogenes [2] stood at 90%. Further, in the experiment with Escherichia coli [4], the responders at 25 mg/kg is 100%.

As for `CC(C)S(=O)(=O)Cc1c[n+]([O-])c2ccccc2[n+]1[O-]` [H SO2 --CH(CH3)2], the minimal inhibitory concentration (MIC) is 0.781 µg/mL (≈ 2.77 µM) against Escherichia coli [1] and 1.56 µg/mL (≈ 5.53 µM) in the experiment on Streptococcus pyogenes [3]. Besides, in the experiment on Streptococcus pyogenes [2], the responders at 50 mg/kg stood at 100%. This compound displayed a responders at 25 mg/kg in the experiment with Escherichia coli [4] of 90%.

For the compound `CCC[S+]([O-])Cc1c[n+]([O-])c2ccccc2[n+]1[O-]` (centres unmarked) [H SO--CH2 CH2 CH3, 2-n-propylsulfinylmethylquinoxaline 1,4-dioxide], the MIC in the experiment on Escherichia coli [1] was 6.25 µg/mL (≈ 23.5 µM); against Streptococcus pyogenes [3], 1.56 µg/mL (≈ 5.87 µM). Besides, the responders at 50 mg/kg in the experiment with Streptococcus pyogenes [2] turned out to be 60%. The compound further displayed a responders at 25 mg/kg in the experiment with Escherichia coli [4] of 50%.

In the case of `CC[S+]([O-])Cc1c[n+]([O-])c2ccccc2[n+]1[O-]` (centres unmarked) [H SO--CH2 CH3, 2-Ethylsulfinylmethylquinoxaline 1,4-Dioxide], the minimum inhibitory concentration (MIC) in the experiment on Escherichia coli [1] was found to be 3.12 µg/mL (≈ 12.4 µM); with Streptococcus pyogenes [3], 0.781 µg/mL (≈ 3.1 µM). In the experiment on Streptococcus pyogenes [2], this compound registered a responders at 50 mg/kg of 20%. In the experiment with Escherichia coli [4], this compound gave a responders at 25 mg/kg of 90%.

`C[S+]([O-])Cc1c[n+]([O-])c2ccccc2[n+]1[O-]` (centres unmarked) [H SO--CH3, 2-Methylsulfinylmethylquinoxaline 1,4-Dioxide]: the MIC against Escherichia coli [1] and against Streptococcus pyogenes [3] was less than 0.391 µg/mL each time. The responders at 100 mg/kg came out at 30% in the experiment on Streptococcus pyogenes [2] and 100% in the experiment with Escherichia coli [4].
